Reference: patent US8637556B2, “Linked Myc-max small molecule inhibitors” (University of Pittsburgh—Of the Commonwealth System of …, priority 2009, dated 2014)
Where two headings read alike, the source gives them in different places.

Tests used:
[1] = target: T1, c-Myc-Max heterodimer binding to E-Box DNA (Homo sapiens, UniProt P01106); test: Electrophoretic mobility shift assay (EMSA) of c-Myc-Max DNA binding; type: biochemical; conditions: c-Myc-Max dimer 1 μM, 10 nM E-Box DNA
T1 construct: 6xHis with TEV site (N, cleaved yes); made in house; host or cells: c-Myc: E. coli BL21DE3(pLysS); Max: E. coli M15(pRep4)
Protocol: FIG. 17. Inhibition of c-Myc-Max DNA binding measured by electrophoretic mobility shift assay (EMSA). a. Inhibition by bivalent compounds 11, 12, 13. b. Inhibition by bivalent compounds 16, 17, 18. c. Inhibition by monovalent compounds 10074-G5 (1) and 10058-F4 (2). Inhibitor concentrations are micromolar. The c-Myc-Max dimer concentration was 1 μM in a and b, 50 nM in c.
Reactions containing c-Myc353-437 and varying concentrations of each tested inhibitor in a buffer containing 1×PBS, 1 mM EDTA; 0.1% NP40; 5% Glycerol; 1 mM DTT; 0.4 mg/mL BSA were incubated for 30 minutes, followed by addition of pre-mixed p21 Max and a synthetic double-stranded oligonucleotide containing a consensus c-Myc-binding “E-Box” element (CACGTG). The final protein concentration was 1 μM for both c-Myc353-437 and p21 Max, 10 nM E-Box DNA. The binding reaction was then allowed to proceed for an additional 15 minutes before loading on an 8% running gel (80:1 poly acrylamide:bis-acrylamide). Control experiments with the monovalent parent inhibitors 1 and 2 were similarly performed using a lower (50 nM) concentration of each protein component. Gels were run at 20° C. in 0.5×TBE and scanned on a BioRad FX molecular imager. Data were analyzed with BioRad Quantity One software.
We evaluated the efficacy of the linked compounds 11, 12, 13, 16, 17, 18 in inhibiting the c-Myc-Max interaction by measuring the binding of a target DNA sequence (E-Box) by the protein heterodimers in an electrophoretic mobility shift assay (EMSA). […] Of these, the best was compound 16 (LINK N1), with an IC50 in the 0.5-1.0 μM in both of the above cell lines. In contrast, higher concentrations of the compounds were required to inhibit the growth of the non-transformed rat fibroblast line TGR1 or of TGR1-derived c-Myc null rat fibroblasts reconstituted with either of the c-Myc target genes HMGA1b or MT-MC1, which restore a normal growth rate. […] The lower, albeit promising, potency of the bivalent inhibitors in cell based assays compared to ones involving purified components, and the partial lack of correlation between the first and the latter, may reflect a generally poor cell permeability of these compounds, which are relatively bulky and display higher than optimal polar surface areas. The effects of the linker chain connectivity on the compounds conformation and shape may also affect their cell permeability in a different manner from what observed for their c-Myc binding affinity, resulting in the aforementioned incomplete correlation between their performance in cell based and purified components assays (FIG. 19). […]

[2] = test system: HL60 promyelocytic leukemia cells; test: HL60 cell growth inhibition (MTT assay); type: cell-based; conditions: Homo sapiens, HL-60
Protocol: (§1) These assays were performed as previously described using HL60 promyelocytic leukemia cells and Daudi Burkitt lymphoma cells, each of which expresses high levels of endogenous c-Myc (Wang, H. et al. Mol. Cancer Ther. 6, 2399-408 (2007)). As controls for non-specific effects of bivalent compounds, we utilized a c-Myc nulllizygous strain of rat fibroblasts (Mateyak, M. K., et al. Cell Growth & Differentiation 8, 1039-48 (1997)) expressing the c-Myc target genes MT-MC1 and HMGAIb, each of which restores a normal growth rate as well as the TGR1 fibroblast line from which the nullizygous line was derived (Wang, H. et al. Mol. Cancer Ther. 6, 2399-408 (2007); Mateyak, M. K., et al. Cell Growth & Differentiation 8, 1039-48 (1997); and Rothermund, K. et al. Cancer Research 65, 2097-107 (2005)). […] Cell quantification was performed on triplicate wells over the ensuing 4-5 days without changing the medium by measuring the absorbance at 490 nm using the MTT assay (Mosmann, T. Journal of Immunological Methods 65, 55-63 (1983)). IC50 values were estimated from linear regression of the inhibition data at the third day of each experiment.
(§2) We evaluated the efficacy of the linked compounds 11, 12, 13, 16, 17, 18 in inhibiting the c-Myc-Max interaction by measuring the binding of a target DNA sequence (E-Box) by the protein heterodimers in an electrophoretic mobility shift assay (EMSA). […] A fluorinated substitute of 14, 24, the choice of which was based upon the results of structure activity relationship studies described in Wang, H. et al. (Mol. Cancer Ther. 6, 2399-408 (2007)), was employed at this purpose (Muller, K., et al. Science 317, 1881-6 (2007) and Kirk, K. L. Current Topics in Medicinal Chemistry 6, 1447-56 (2006)).

[3] = test system: Daudi Burkitt lymphoma cells; test: Burkitt's lymphoma cell growth inhibition (MTT assay); type: cell-based; conditions: Homo sapiens
Protocol: as §1, §2

[4] = Table 3, MTT, third day, read-out: Growth inhibition HL60
[5] = Table 3, MTT, third day, read-out: Growth inhibition BL

T1 sequence (P01106 368-452, one chain of several): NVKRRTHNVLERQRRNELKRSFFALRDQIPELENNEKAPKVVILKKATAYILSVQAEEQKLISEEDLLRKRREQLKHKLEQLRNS

Which results are given for `O=C1NC(=S)S/C1=C\c1ccc(C(=O)NCCCCCNC(=O)c2cccc(Nc3ccc([N+](=O)[O-])c4nonc34)c2)cc1` [compound 12, N-[5-({3-[(7-nitro-2,1,3-benzoxadiazol-4-yl)amino]phenyl}formamido)pentyl]-4-{[(5Z)-4-oxo-2-sulfanylidene-1,3-thiazolidin-5-ylidene]methyl}benzamide]?
Disruption of c-Myc-Max DNA (E-Box) binding [1]: Strong disruption of DNA binding; IC50 [2, 4]: > 30 µM; IC50 [3, 5]: 20 to 35 µM

With `O=C1NC(=S)SC1=Cc1ccc(C(=O)NCCCCCNC(=O)c2ccc(Nc3ccc([N+](=O)[O-])c4nonc34)cc2)cc1` [compound 13] as the compound, how does the “Disruption of c-Myc-Max DNA (E-Box) binding” value (shortened to “Disruption of c-Myc-Max DNA”) [1] read?
The value was “Strong disruption of DNA binding”.

What about the IC50 [2, 4] of the same compound?
The IC50 was 6 µM.

And the IC50 [3, 5]?
The IC50 was 5 to 10 µM.

With `CCc1ccc(/C=C2\SC(=O)N(CCCCCCNC(=O)c3ccccc3Nc3ccc([N+](=O)[O-])c4nonc34)C2=O)cc1` [compound 16, N-{6-[(5Z)-5-[(4-ethylphenyl)methylidene]-2,4-dioxo-1,3-thiazolidin-3-yl]hexyl}-2-[(7-nitro-2,1,3-benzoxadiazol-4-yl)amino]benzamide amine] as the compound, how does the “Disruption of c-Myc-Max DNA” value [1] read?
Its value is “Strong disruption of DNA binding”.

What about the IC50 ([2]; HL60 cells, read-out: IC50) of the same compound?
Its IC50 is 0.5 to 1 µM.

What about the IC50 [2, 4] of the same compound?
Its IC50 is 0.5 to 0.7 µM.

And the IC50 ([3]; BL cells, read-out: IC50)?
The IC50 was 0.5 to 1 µM.

What about the IC50 [3, 5] of the same compound?
Its IC50 is 0.7 to 0.9 µM.

For `CCc1ccc(C=C2SC(=O)N(CCCCCCNC(=O)c3cccc(Nc4ccc([N+](=O)[O-])c5nonc45)c3)C2=O)cc1` [compound 17], which “Disruption of c-Myc-Max DNA” value [1] is on record?
Its value is “Strong disruption of DNA binding”.

What about the IC50 [2, 4] of the same compound?
Its IC50 is over 30 µM.

And the IC50 [3, 5]?
Its IC50 is over 10 µM.
